One series concerns Peregrinus maidis. The series can be described thus: Dose response insect-feeding assay for E5 against Peregrinus maidis (sucrose/parafilm membrane, mortality scored after 72 hours). The following applies: adult insects, two replicates. It counts as in vivo. On the procedure:
(§1) To test for the insecticidal activity of cyclotide E5 against the target homopteran pests, the lyophilized fractionated samples were placed in 96-well microtiter plates, resuspended in H2O and added to a 20% sucrose solution as detailed below. Parafilm was stretched to just short of its breaking point and used to seal the sucrose/sample reservoir. Adult insects were then added on top of the membrane in a second chamber such that the base of the insect enclosure was the parafilm membrane. The top of the insect chamber was then sealed with plastic wrap and punctured for air exchange. The number of insects feeding from each well was determined. The assay was scored after 72 hours and nsecticidal activity was measured based on insect mortality.
(§2) Specifically, for the dose-response assay results shown in Tables 1 and 2, lyophilized RP-HPLC-pure sample was resuspended in 300 μL H2O and added to 20% sucrose in the following volumes: 60, 45, 25, 10, and 5 μL. Two replicates per dose were prepared, including two negative controls. After 72 hours, the wells were scored for insect mortality.

The next series has as its system Aphis glycines. Put plainly: Dose response insect-feeding assay for E5 against Aphis glycines (sucrose/parafilm membrane, mortality scored after 72 hours). It counts as in vivo. The following applies: adult insects, two replicates. The procedure: as §1, §2

Where a SMILES comes first, the peptide text is derived from it. Bridges are numbered along the chain shown (N, C = ends).

`CC[C@H](C)[C@@H]1NC(=O)[C@H](Cc2ccc(O)cc2)NC(=O)[C@H](C(C)C)NC(=O)[C@@H]2CSSC[C@@H]3NC(=O)[C@H](CCCCN)NC(=O)[C@@H]4CSSC[C@H](NC(=O)[C@@H]5CCCN5C(=O)[C@H]([C@@H](C)CC)NC(=O)[C@H](CCCCN)NC(=O)[C@H](CC(N)=O)NC(=O)[C@H](Cc5ccc(O)cc5)NC(=O)[C@H](CSSC[C@H](NC(=O)CNC1=O)C(=O)N[C@@H]([C@@H](C)O)C(=O)N[C@@H](CC(C)C)C(=O)N[C@@H]([C@@H](C)O)C(=O)N[C@@H](C)C(=O)N[C@@H](CC(C)C)C(=O)N[C@@H](C)C(=O)NCC(=O)N4)NC(=O)[C@H](C(C)C)NC(=O)[C@H](CCCCN)NC(=O)[C@H](CC(N)=O)NC(=O)[C@H](CCCCN)NC3=O)C(=O)NCC(=O)N[C@@H](CCC(=O)O)C(=O)N[C@@H](CO)C(=O)N2` [E5] (cyclo(AGCKCKNKVCYNKIPCGESCVYIGCTLTAL); disulfide 3-16, 5-20, 10-25 (inferred); ring closure inferred): the “average percent (%) insect mortality” value turned out to be 90% with Peregrinus maidis (E5 concentration 2.73 μM (5 μL)); 90% in the series with Peregrinus maidis (E5 concentration 4.09 μM (10 μL)); 95% with Peregrinus maidis (E5 concentration 9.97 μM (25 μL)); 100% in the series on Peregrinus maidis (E5 concentration 16.61 μM (45 μL)); 100% in the series with Peregrinus maidis (E5 concentration 33.22 μM (60 μL)); 56.5% with Aphis glycines (E5 concentration 6.36 μM (5 μL)). For the same compound, the “average percent (%) insect mortality” value with Aphis glycines (E5 concentration 12.73 μM (10 μL)) is 80%; in the series on Aphis glycines (E5 concentration 31.81 μM (25 μL)), 75%; in the series on Aphis glycines (E5 concentration 57.26 μM (45 μL)), 95%; with Aphis glycines (E5 concentration 76.35 μM (60 μL)), 100%.

The values are drawn from US7442855B2, “Insecticidal plant cyclotide with activity against Homopteran insects” (E. I. du Pont De Nemours and Company, priority 2004, dated 2008).
